Key:
[1] = system: STZ induced diabetic rats; assay: Streptozotocin-induced diabetes in rats, blood glucose; format: in vivo, male Wistar rats; settings: for Percent reduction in blood glucose: STZ diabetic rats
Protocol: Diabetes was induced in male Wistar rats by intraperitoneal (i.p.) injection of streptozotocin (STZ) (60 mg/kg) dissolved in 0.05 M citrate buffer, pH 4.6. Plasma glucose levels were estimated 48 hours after STZ administration. […] The rats were divided into […] (n=8 in each group): the first (control) group consisted of untreated animals, the second group had diabetic animals and the third and fourth groups consisted of diabetic animals treated with the test compounds (50 and 100 mg/kg respectively). Test compounds were administered p.o. for 8 days to STZ induced diabetic rats (180-200 g). Blood glucose was measured on day 0, 3 and 8 (Table 3).

hPPARγ = molecular target: T1, hPPARγ (Homo sapiens, UniProt P37231); assay: hPPARγ transactivation in cell-based assay (CV-1 cells, luciferase); parameters: Emax: dose or concentration left out as unconfirmed; settings: for PPARγ (Fold activation at 1 μM): CV-1 cells transfected with hPPARγ
T1 construct: expressed in transfected cells; host or cells: CV-1 cells
T1 sequence (P37231 1-505): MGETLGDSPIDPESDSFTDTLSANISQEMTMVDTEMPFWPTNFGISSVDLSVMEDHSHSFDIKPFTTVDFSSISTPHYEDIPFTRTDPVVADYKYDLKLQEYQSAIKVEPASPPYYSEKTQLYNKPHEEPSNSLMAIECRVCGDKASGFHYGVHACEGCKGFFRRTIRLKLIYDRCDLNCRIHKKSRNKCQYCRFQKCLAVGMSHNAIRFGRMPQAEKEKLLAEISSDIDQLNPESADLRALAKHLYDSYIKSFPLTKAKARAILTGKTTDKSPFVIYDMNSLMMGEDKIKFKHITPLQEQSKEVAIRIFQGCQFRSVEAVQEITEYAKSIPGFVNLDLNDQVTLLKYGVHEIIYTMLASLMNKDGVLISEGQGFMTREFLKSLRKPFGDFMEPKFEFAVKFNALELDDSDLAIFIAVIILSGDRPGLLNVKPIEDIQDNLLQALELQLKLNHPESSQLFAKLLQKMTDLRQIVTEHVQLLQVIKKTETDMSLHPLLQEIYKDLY
Protocol: (§1) Cell based transcription assay was employed to identify hPPAR γ/α agonists. CV-1 cells were maintained in MEM (minimum essential medium) containing 10% FBS (fetal bovine serum). Cells were seeded at a density of 80,000 cells/well in a 24-well plate one day prior to transfection. CV-1 cells were transiently transfected with hPPAR γ/α using Lipofectamine 2000. […] Receptor activation by ligands leads to activation of luciferase expression, which was measured after 15-16 h incubation. The cells were washed with PBS, lysed, and luciferase activity measured in a microplate luminometer. […] Both compounds were synthesized in-house. Maximum activation with the reference agonists was defined as 100%. Receptor activation by test compounds is presented as percentage of maximum activation caused by the respective reference agonists in Table 4(a), Table 4(b) and Table 4(c).

3T3-L1 pre-adipocytes = assay: Potentiation of insulin-stimulated lipogenesis in 3T3-L1 adipocytes; format: cell-based; settings: over insulin control = 1
Protocol: 3T3-L1 pre-adipocytes were grown to confluence in 25 ml culture flasks in DMEM (Dulbecco's Modified Eagle's Medium, with 25 mM glucose) containing 10% fetal calf serum (FCS) and antibiotics in a humidified atmosphere of 5% CO2 and 95% air at 37° C. The medium was changed every 2-3 days. The cells were trypsinised at confluency using 0.25% trypsin and transferred to another flask.
For the assay, cells were grown in 24 well plates. Induction of differentiation was done when the cells had grown to confluency with DMEM containing 5% FCS and supplemented with 0.5 mM IBMX (3-Isobutyl-1-methylxanthine), 0.5 μM DEX (dexamethasone) and 1 μg/ml insulin. […] The medium was changed three times, each at an interval of 2 days. On the day of termination of medium changes, lipogenesis assay was performed.
3T3-L1 cells were grown to confluency in 24 well plates. […] On the day of termination of the assay the cells were incubated in […] KRHB (Krebs-Ringer Hepes buffer) for 2 hr at 37° C. in a CO2 incubator. This was replaced with fresh KRHB with 0.1 mM glucose containing 100 nM insulin, test compound or insulin plus test compound. Lipogenesis was initiated by the addition of 20 μl of 50 μCi/ml [^3H]-D-Glucose to each well and incubation for 90 min at 37° C. in a CO2 incubator. The reaction was terminated by aspirating the medium from each well and washing the cells rapidly 3 times with ice-cold PBS (phosphate buffered saline). 500 μl of 0.2 N NaOH was added to lyse the cells. 450 μl was aliquoted into scintillation vials and scintillation cocktail added. The vials were read in Liquid Scintillation Counter. Results are expressed as fold activation of the standard or test compound over the control (Table 2).

isolated rat hepatocytes [2] = assay: Inhibition of gluconeogenesis in isolated rat hepatocytes; format: cell-based; settings: 5 mM fructose
Protocol: Assay protocol for determination of inhibition of gluconeogenesis by compounds in isolated rat hepatocytes:
Hepatocytes were isolated by collagenase digestion of perfused livers from male Wistar rats fasted overnight according to the method described in J. Cell. Science., 56, 233-244, 1982, the disclosure of which is incorporated by reference for the teaching of the method.
(§2) The assay was done in three groups: basal, control and test. The test compounds were added to the vials at different concentrations. The isolated hepatocytes were added to the vials and they were incubated at 37° C. for 15 min. After 15 min, 5 mM fructose (precursor for gluconeogenesis) was added to the control and test group. Vials were again incubated at 37° C. for one hour with constant shaking (80 cycles/min.). Incubation was terminated by centrifuging the reaction mixture at 3000 rpm for 5 min. The supernatant was used for determination of both glucose and lactate dehydrogenase (LDH) (Table 1).
An active compound would decrease the amount of glucose formed, which is read at 520 nm by glucose oxidase-peroxidase method.

isolated rat hepatocytes [3] = assay: LDH leakage from isolated rat hepatocytes; format: cell-based
Protocol: as §2
The LDH activity is measured, by the method described in Meth. Enz. Ana. 3, 118-125, 1984, the disclosure of which is incorporated by reference for the teaching of the method, as the amount of pyruvate consumed by continuously monitoring the decrease in absorbance due to oxidation of NADH (Nicotinamide Adenine Dinucleotide-reduced form) at 339 nm.

hPPARα = molecular target: T2, hPPARα (Homo sapiens, UniProt Q07869); assay: hPPARα transactivation in cell-based assay (CV-1 cells, luciferase)
T2 construct: expressed in transfected cells; host or cells: CV-1 cells
T2 sequence (Q07869 1-468): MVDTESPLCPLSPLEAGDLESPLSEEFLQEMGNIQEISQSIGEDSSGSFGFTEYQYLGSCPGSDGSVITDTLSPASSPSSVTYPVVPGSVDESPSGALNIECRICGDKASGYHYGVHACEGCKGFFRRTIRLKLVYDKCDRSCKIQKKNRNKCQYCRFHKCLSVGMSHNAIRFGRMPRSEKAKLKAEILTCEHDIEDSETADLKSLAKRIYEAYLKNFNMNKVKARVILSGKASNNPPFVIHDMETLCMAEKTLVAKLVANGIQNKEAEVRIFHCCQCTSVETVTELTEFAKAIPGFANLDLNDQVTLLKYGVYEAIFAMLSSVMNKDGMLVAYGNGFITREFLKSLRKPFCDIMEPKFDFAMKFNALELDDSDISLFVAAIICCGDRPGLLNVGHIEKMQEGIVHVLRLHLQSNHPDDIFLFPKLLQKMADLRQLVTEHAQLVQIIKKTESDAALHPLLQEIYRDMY
Protocol: as §1

[4] = CV-1, read-out: PPARγ activation as percentage of maximum activation by rosiglitazone
[5] = with insulin, concentration not given
[6] = one entry 'No leakage' for all concentrations tested of the compound (up to 100 μM)
[7] = Rattus norvegicus, Hepatocyte, 10 μM, read-out: Gluconeogenesis (glucose production) % inhibition
[8] = Rattus norvegicus, Hepatocyte, read-out: Gluconeogenesis (glucose production) % inhibition
[9] = Rattus norvegicus, Hepatocyte, 50 μM, read-out: Gluconeogenesis (glucose production) % inhibition
[10] = Rattus norvegicus, Hepatocyte, 100 μM, read-out: Gluconeogenesis (glucose production) % inhibition
[11] = 10 μM, isolated rat hepatocytes
[12] = 25 μM, isolated rat hepatocytes
[13] = 50 μM, isolated rat hepatocytes
[14] = 100 μM, isolated rat hepatocytes

## O=C(O)/C=C\C(=O)O.O=C1NC(=O)C(Cc2ccc3c(c2)CN(c2ccccn2)CCO3)S1 (centres unmarked) [Compound of Example 5, 5-(4-Pyridine-2-yl-2,3,4,5-tetrahydro-benzo[f][1,4]oxazepin-7-ylmethyl)-thiazolidine-2,4-dione maleate]
[1]; 50 mpk p.o. for 8 days
  Percent reduction in blood glucose: 28%
[1]; 50 mpk p.o., Day 0, STZ diabetic rats
  Blood glucose: 16.8 ± 0.9 μmols/ml
[1]; 50 mpk p.o., Day 3, STZ diabetic rats
  Blood glucose: 15.9 ± 3.0 μmols/ml
[1]; 50 mpk p.o., Day 8, STZ diabetic rats
  Blood glucose: 14.1 ± 1.99 μmols/ml
[1]; 100 mpk p.o. for 8 days
  Percent reduction in blood glucose: 31%
[1]; 100 mpk p.o., Day 0, STZ diabetic rats
  Blood glucose: 17.0 ± 2.0 μmols/ml
[1]; 100 mpk p.o., Day 3, STZ diabetic rats
  Blood glucose: 16.0 ± 1.09 μmols/ml
[1]; 100 mpk p.o., Day 8, STZ diabetic rats
  Blood glucose: 13.0 ± 0.9 μmols/ml
hPPARγ
  PPARγ (Fold activation at 1 μM): 1.8 fold
hPPARγ; [4]
  Emax: 12%

## COC(=O)C(Cc1ccc2c(c1)CN(c1ccccn1)CCO2)C(=O)OC [Compound of Example 2]
3T3-L1 pre-adipocytes; [5]
  Fold stimulation of insulin-stimulated lipogenesis: 2 fold

## O=C(O)/C=C\C(=O)O.O=C1NC(=O)C(=Cc2ccc3c(c2)CN(c2ccccn2)CCO3)S1 [Compound of Example 8, 5-(4-Pyridin-2-yl-2,3,4,5-tetrahydro-benzo[f][1,4]oxazepin-7-ylmethylene)-thiazolidine-2,4-dione maleate]
Isolated rat hepatocytes [2]; 10 μM
  Gluconeogenesis (glucose production) % inhibition: 9%
Isolated rat hepatocytes [2]; 50 μM
  Gluconeogenesis (glucose production) % inhibition: 13%
Isolated rat hepatocytes [2]; 100 μM
  Gluconeogenesis (glucose production) % inhibition: 45%
Isolated rat hepatocytes [3]; [6]
  LDH % leakage: No
3T3-L1 pre-adipocytes; [5]
  Fold stimulation of insulin-stimulated lipogenesis: 1.8 fold
other
  melting point: 224 to 226 °C

## CN(CCOc1ccc(CC2SC(=O)NC2=O)cc1)c1ccccn1 (centres unmarked) [Rosiglitazone, reference compound]
Isolated rat hepatocytes [2]; Rattus norvegicus, Hepatocyte, 5 μM, read-out: Gluconeogenesis (glucose production) % inhibition
  inhibition at 5 µM: 11%
Isolated rat hepatocytes [2]; [7]
  inhibition at 10 µM: 28%
Isolated rat hepatocytes [2]; [8]
  inhibition at 25 µM: 43%
Isolated rat hepatocytes [2]; [9]
  inhibition at 50 µM: 57%
Isolated rat hepatocytes [2]; [10]
  inhibition at 100 µM: 68%
Isolated rat hepatocytes [3]; 5 μM, isolated rat hepatocytes
  LDH % leakage: 9%
Isolated rat hepatocytes [3]; [11]
  LDH % leakage: 9%
Isolated rat hepatocytes [3]; [12]
  LDH % leakage: 10%
Isolated rat hepatocytes [3]; [13]
  LDH % leakage: 11%
Isolated rat hepatocytes [3]; [14]
  LDH % leakage: 15%

## O=C1NC(=O)C(=Cc2ccc3c(c2)CN(c2nc4ccccc4o2)CCO3)S1 [Compound of Example 6, 5-(4-Benzooxazol-2-yl-2,3,4,5-tetrahydro-benzo[f][1,4]oxazepin-7-ylmethylene)-thiazolidine-2,4-dione]
3T3-L1 pre-adipocytes; 10 μM with insulin
  Fold stimulation of insulin-stimulated lipogenesis: 1.4 fold

## O=C1NC(=O)C(=Cc2ccc3c(c2)CN(c2ccccn2)CCO3)S1 [Compound of Example 3, 5-(4-Pyridin-2-yl-2,3,4,5-tetrahydro-benzo[f][1,4]oxazepin-7-ylmethylene)-thiazolidine-2,4-dione]
Isolated rat hepatocytes [2]; 50 μM
  Gluconeogenesis (glucose production) % inhibition: 42%
Isolated rat hepatocytes [2]; 100 μM
  Gluconeogenesis (glucose production) % inhibition: 74%
Isolated rat hepatocytes [2]; [7]
  inhibition at 10 µM: 10%
Isolated rat hepatocytes [2]; [8]
  inhibition at 25 µM: 36%
Isolated rat hepatocytes [2]; Rattus norvegicus, Hepatocyte, 75 μM, read-out: Gluconeogenesis (glucose production) % inhibition
  inhibition at 75 µM: 51%
Isolated rat hepatocytes [3]; [11]
  LDH % leakage: 5%
Isolated rat hepatocytes [3]; [12]
  LDH % leakage: 5%
Isolated rat hepatocytes [3]; [13]
  LDH % leakage: 6%
Isolated rat hepatocytes [3]; 75 μM, isolated rat hepatocytes
  LDH % leakage: 7%
Isolated rat hepatocytes [3]; [14]
  LDH % leakage: 7%
3T3-L1 pre-adipocytes; 1 μM with insulin
  Fold stimulation of insulin-stimulated lipogenesis: 1.2 fold
3T3-L1 pre-adipocytes; 10 μM with insulin
  Fold stimulation of insulin-stimulated lipogenesis: 1.4 fold
3T3-L1 pre-adipocytes; 25 μM with insulin
  Fold stimulation of insulin-stimulated lipogenesis: 1.7 fold

## O=C1NC(=O)C(Cc2ccc3c(c2)CN(c2nc4ccccc4o2)CCO3)S1 (centres unmarked) [Compound of Example 7, 5-(4-Benzooxazol-2-yl-2,3,4,5-tetrahydro-benzo[f][1,4]oxazepin-7-yl-methyl)-thiazolidine-2,4-dione]
Isolated rat hepatocytes [2]; Rattus norvegicus, Hepatocyte, 3 μM, read-out: Gluconeogenesis (glucose production) % inhibition
  inhibition at 3 µM: 12%
Isolated rat hepatocytes [2]; Rattus norvegicus, Hepatocyte, 30 μM, read-out: Gluconeogenesis (glucose production) % inhibition
  inhibition at 30 µM: 19%
Isolated rat hepatocytes [2]; [10]
  inhibition at 100 µM: 50%
Isolated rat hepatocytes [3]; [6]
  LDH % leakage: No
hPPARγ
  PPARγ (Fold activation at 1 μM): 0.7 fold
hPPARγ; [4]
  Emax at 1 µM: 9%
hPPARα; 20 μM, CV-1 cells transfected with hPPARα
  PPARα (Fold activation at 20 μM): 1.5 fold
hPPARα; CV-1, read-out: PPARα activation as percentage of maximum activation by Wy-14643
  Emax at 20 µM: 47%

## O=C1NC(=O)C(Cc2ccc3c(c2)CN(c2ccccn2)CCO3)S1 (centres unmarked) [Compound of Example 4, 5-(4-Pyridin-2-yl-2,3,4,5-tetrahydro-benzo[f][1,4]oxazepin-7-yl-methyl)-thiazolidine-2,4-dione]
Isolated rat hepatocytes [2]; [7]
  inhibition at 10 µM: 27%
Isolated rat hepatocytes [2]; [9]
  inhibition at 50 µM: 35%
Isolated rat hepatocytes [2]; [10]
  inhibition at 100 µM: 57%
Isolated rat hepatocytes [3]; [6]
  LDH % leakage: No
3T3-L1 pre-adipocytes; 10 μM with insulin
  Fold stimulation of insulin-stimulated lipogenesis: 2 fold
3T3-L1 pre-adipocytes; 100 μM with insulin
  Fold stimulation of insulin-stimulated lipogenesis: 2.3 fold
other
  melting point: 180 to 181 °C

From patent publication US8263587B2, “Benzoxazepine compounds, their preparation and use” (Piramal Healthcare Limited, priority 2006, dated 2012)
